# Key:
# Test in all cases: Test B pre-/postemergence plant response
# Assay type in all cases: in vivo
# [1] = tested on: yellow nutsedge (Cyperus esculentus)
# In short: (§1)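 Pre-em in loam/sand; post-em at 1–4 leaf (2–18 cm) in peat mix. Solvent + surfactant formulation. Greenhouse 13–15 d; visual % control vs untreated, 0–100.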
# [2] = tested on: large crabgrass (Digitaria sanguinalis)
# In short: as §1
# [3] = tested on: wild oat (Avena fatua)
# In short: as §1
# [4] = tested on: kochia (Kochia scoparia)
# In short: as §1
# [5] = tested on: cocklebur (Xanthium strumarium)
# In short: as §1
# [6] = tested on: nightshade (eastern black nightshade, Solanum ptycanthum); settings: Preemergence
# In short: as §1
# [7] = tested on: lambsquarters (Chenopodium album)
# In short: as §1
# [8] = tested on: galium (catchweed bedstraw, Galium aparine)
# In short: as §1
# [9] = tested on: sunflower (common oilseed sunflower, Helianthus annuus); settings: Preemergence
# In short: as §1
# [10] = tested on: woolly cupgrass (Eriochloa villosa)
# In short: as §1
# [11] = tested on: Surinam grass (Brachiaria decumbens)
# In short: as §1
# [12] = Postemergence, 31 g ai/ha, 0 to 100 scale (0 no effect, 100 complete control)
# [13] = Postemergence, 125 g ai/ha, scale 0 to 100 (0 no effect, 100 complete control)
# [14] = Postemergence, 250 g ai/ha, scale 0 to 100 (0 no effect, 100 complete control), 13 to 15 days
# [15] = Postemergence, 62 g ai/ha, scale 0 to 100 (0 no effect, 100 complete control)
# [16] = Preemergence, 31 g ai/ha, scale 0 to 100 (0 no effect, 100 complete control)
# [17] = Preemergence, 62 g ai/ha, scale 0 to 100, 0 no effect, 100 complete control
# [18] = Preemergence, 125 g ai/ha, scale 0 to 100, 0 no effect, 100 complete control
# [19] = Preemergence, 250 g ai/ha, 0 to 100 scale
# [20] = 31 g ai/ha, scale 0 to 100 (0 no effect, 100 complete control)
# [21] = 62 g ai/ha, scale 0 to 100, 0 no effect, 100 complete control
# [22] = 125 g ai/ha, scale 0 to 100, 0 no effect, 100 complete control
smiles,measurement,setting,value
CCCCn1c(C2CC2)ncc(C(=O)C2=C(O)CCCC2=O)c1=O [Compound 193],"Plant response rating, Nutsedge, Yellow",[1]; [12],60
same,"Plant response rating, Nutsedge, Yellow",[1]; [13],75
same,"Plant response rating, Nutsedge, Yellow",[1]; [14],75
same,"Plant response rating, Nutsedge, Yellow",[1]; [15],65
same,"Plant response rating, Nutsedge, Yellow",[1]; [16],10
same,"Plant response rating, Nutsedge, Yellow",[1]; [17],65
same,"Plant response rating, Nutsedge, Yellow",[1]; [18],70
same,"Nutsedge, Yellow plant response rating",[1]; [19],90
same,"Plant response rating, Crabgrass, Large",[2]; [12],75
same,"Plant response rating, Crabgrass, Large",[2]; [13],98
same,"Plant response rating, Crabgrass, Large",[2]; [14],100
same,"Plant response rating, Crabgrass, Large",[2]; [15],90
same,"Plant response rating, Crabgrass, Large",[2]; [16],100
same,"Plant response rating, Crabgrass, Large",[2]; [17],100
same,"Plant response rating, Crabgrass, Large",[2]; [18],100
same,"Crabgrass, Large plant response rating",[2]; [19],100
same,"Plant response rating, Oat, Wild",[3]; [12],0
same,"Plant response rating, Oat, Wild",[3]; [14],75
same,"Plant response rating, Oat, Wild",[3]; [15],50
same,"Plant response rating, Oat, Wild",[3]; [16],5
same,"Plant response rating, Oat, Wild",[3]; [17],5
same,"Plant response rating, Oat, Wild",[3]; [18],30
same,"Oat, Wild plant response rating",[3]; [19],60
same,"Plant response rating, Kochia",[4]; [12],20
same,"Plant response rating, Kochia",[4]; [13],100
same,"Plant response rating, Kochia",[4]; [14],100
same,"Plant response rating, Kochia",[4]; [15],80
same,"Plant response rating, Kochia",[4]; [16],20
same,"Plant response rating, Kochia",[4]; [17],70
same,"Plant response rating, Kochia",[4]; [18],80
same,Kochia plant response rating,[4]; [19],90
same,"Plant response rating, Cocklebur",[5]; [12],95
same,"Plant response rating, Cocklebur",[5]; [13],100
same,"Plant response rating, Cocklebur",[5]; [14],100
same,"Plant response rating, Cocklebur",[5]; [15],95
same,"Plant response rating, Cocklebur",[5]; [17],75
same,Cocklebur plant response rating,[5]; [19],95
same,"Plant response rating, Nightshade",[6]; [20],100
same,"Plant response rating, Nightshade",[6]; [21],100
same,"Plant response rating, Nightshade",[6]; [22],100
same,Nightshade plant response rating,"[6]; 250 g ai/ha, 0 to 100 scale",100
same,"Plant response rating, Lambsquarters",[7]; [12],98
same,"Plant response rating, Lambsquarters",[7]; [13],98
same,"Plant response rating, Lambsquarters",[7]; [14],100
same,"Plant response rating, Lambsquarters",[7]; [15],98
same,"Plant response rating, Lambsquarters",[7]; [16],100
same,"Plant response rating, Lambsquarters",[7]; [17],100
same,"Plant response rating, Lambsquarters",[7]; [18],100
same,Lambsquarters plant response rating,[7]; [19],100
same,"Plant response rating, Galium",[8]; [12],75
same,"Plant response rating, Galium",[8]; [13],90
same,"Plant response rating, Galium",[8]; [14],90
same,"Plant response rating, Galium",[8]; [16],75
same,"Plant response rating, Galium",[8]; [17],100
same,"Plant response rating, Galium",[8]; [18],100
same,Galium plant response rating,[8]; [19],100
same,"Plant response rating, Sunflower",[9]; [20],70
same,"Plant response rating, Sunflower",[9]; [21],80
same,"Plant response rating, Sunflower",[9]; [22],80
same,Sunflower plant response rating,"[9]; 250 g ai/ha, 0 to 100 scale",95
same,"Plant response rating, Cupgrass, Woolly",[10]; [12],75
same,"Plant response rating, Cupgrass, Woolly",[10]; [13],95
same,"Plant response rating, Cupgrass, Woolly",[10]; [14],98
same,"Plant response rating, Cupgrass, Woolly",[10]; [15],85
same,"Plant response rating, Cupgrass, Woolly",[10]; [16],10
same,"Plant response rating, Cupgrass, Woolly",[10]; [17],70
same,"Plant response rating, Cupgrass, Woolly",[10]; [18],80
same,"Cupgrass, Woolly plant response rating",[10]; [19],90
same,"Plant response rating, Surinam Grass",[11]; [12],65
same,"Plant response rating, Surinam Grass",[11]; [14],95
same,"Plant response rating, Surinam Grass",[11]; [15],65
same,"Plant response rating, Surinam Grass",[11]; [16],0
same,"Plant response rating, Surinam Grass",[11]; [17],15
same,"Plant response rating, Surinam Grass",[11]; [18],30
same,Surinam Grass plant response rating,[11]; [19],45

# Reference: patent US8952024B2, “Herbicidal pyrimidone derivatives” (E I du Pont de Nemours and Company, priority 2009, dated 2015)
